Test results published in paper PMC10287695, “Non-covalent inhibitors of thioredoxin glutathione reductase with schistosomicidal activity in vivo” (Nature Communications, 2023).
Several values for one entry are separate records, joined by “and”; a condition that tells them apart may be missing. Equal values may be shown once. Read-outs that look alike come from different tables or passages of the source.

What was measured:
adult worms in mice = test system: adult worms in mice; set-up: method as in PMID 15013742; details: cited from earlier work
[1] = human, in vivo; cited from earlier work
S. mansoni NTS = assay: Phenotypic assessment of PZQ activity on NTS; format: cell-based; details: for % Effect, single replicates I, II, III / % Effect / NTS phenotypic score, Mean / IC50: 24 hour exposure; for % Effect: from mean score, 100 - Average (Test) x 100 / Average (Control); for NTS phenotypic score, Mean: score 3 (motile) to 0 (dead); for IC50: NTS phenotypic scoring
Procedure: About 200 NTS incubated at 37 °C in a 5% CO2 incubator overnight were exposed to different concentrations of PZQ (1, 5, 10, 20, 30, 40 and 50 µM) and control without treatment for 24 h in triplicate. Worm images were acquired using Keyence BZ-X800 microscope and PZQ activity evaluated phenotypically. NTS viability was assessed by scoring worms based on morphological changes and motility. Viability scores of 3 = motile, no changes to morphology and transparency, 2 = reduced motility and/or some damage to tegument as well as reduced transparency and increased granularity, 1 = severe reduction of motility and/or damage to tegument with high opacity and high granularity, and 0 = dead.

O=C(C1CCCCC1)N1CC(=O)N2CCc3ccccc3C2C1 (stereo not drawn) [PZQ, praziquantel]
ED50 against adult worms in mice (adult worms in mice): 80 mg/kg
half-life [1]: 1.6 h
% Effect, single replicates I, II, III (S. mansoni NTS; 10 µM): 9.401% and 12.151% and 16.3217%
% Effect (S. mansoni NTS; 10 µM): 12.6338%
NTS phenotypic score, Mean (S. mansoni NTS; 10 µM, mean of 3 replicates): 2.613
% Effect, single replicates I, II, III (S. mansoni NTS; 20 µM): 15.8245% and 13.8003% and 19.4239%
% Effect (S. mansoni NTS; 20 µM): 16.3511%
NTS phenotypic score, Mean (S. mansoni NTS; 20 µM, mean of 3 replicates): 2.502
% Effect, single replicates I, II, III (S. mansoni NTS; 30 µM): 25.0655% and 24.6184% and 29.7619%
% Effect (S. mansoni NTS; 30 µM): 26.486%
NTS phenotypic score, Mean (S. mansoni NTS; 30 µM, mean of 3 replicates): 2.199
% Effect, single replicates I, II, III (S. mansoni NTS; 40 µM): 41.1572% and 48.5123% and 41.922%
% Effect (S. mansoni NTS; 40 µM): 43.8717%
NTS phenotypic score, Mean (S. mansoni NTS; 40 µM, mean of 3 replicates): 1.679
% Effect, single replicates I, II, III (S. mansoni NTS; 50 µM): 60.2247% and 58.8296% and 61.8051%
% Effect (S. mansoni NTS; 50 µM): 60.2866%
NTS phenotypic score, Mean (S. mansoni NTS; 50 µM, mean of 3 replicates): 1.188
LD50 for NTS, phenotypic analysis (S. mansoni NTS; 24 h exposure): 42.9 ± 0.83 µM
IC50 (S. mansoni NTS; FORECAST interpolation, read-out: IC50, single replicates I, II, III): 42.6 µM and 42.3 µM
IC50 (S. mansoni NTS; Schistosoma mansoni, 24 h, FORECAST interpolation, read-out: IC50, single replicates I, II, III): 43.9 µM
IC50 (S. mansoni NTS; Schistosoma mansoni, 24 h, mean of 3 replicates, read-out: IC50, Mean): 42.9 µM
